Experiments:
[1] = target: T1, β-glucocerebrosidase (GCase) (Homo sapiens, UniProt P04062); test: Selectivity: glucocerebrosidase activity in fibroblast lysate; type: biochemical; conditions: 10 μM, the highest concentration tested
T1 construct: wild-type fibroblast (CRL2076) pellets (˜2.5e6 cells/pellet) were lysed; host or cells: wild-type fibroblasts CRL2076, lysate
T1 sequence (P04062 40-536): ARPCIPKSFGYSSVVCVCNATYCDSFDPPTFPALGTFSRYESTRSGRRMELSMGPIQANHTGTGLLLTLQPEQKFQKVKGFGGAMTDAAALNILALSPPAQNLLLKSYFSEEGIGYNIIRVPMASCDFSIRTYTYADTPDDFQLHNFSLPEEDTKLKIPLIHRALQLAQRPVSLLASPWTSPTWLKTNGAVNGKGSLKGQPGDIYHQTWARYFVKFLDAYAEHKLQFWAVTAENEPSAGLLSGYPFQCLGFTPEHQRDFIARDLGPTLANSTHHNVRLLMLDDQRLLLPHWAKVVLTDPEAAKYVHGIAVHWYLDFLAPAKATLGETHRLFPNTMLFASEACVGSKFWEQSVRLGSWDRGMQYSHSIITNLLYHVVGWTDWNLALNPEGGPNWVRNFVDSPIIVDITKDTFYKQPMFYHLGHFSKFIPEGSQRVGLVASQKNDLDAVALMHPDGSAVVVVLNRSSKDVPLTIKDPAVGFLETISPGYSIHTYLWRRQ
Source text: (§1) Enzymatic activity measurements were done in duplicate.

β-hex = test: beta-hexosaminidase enhancement assay in fibroblasts; type: cell-based; conditions: healthy human skin fibroblasts, 5 days, 95, 390 or 780 nM, dose-dependent
Source text: as §1

O-GlcNAcase = target: T2, O-GlcNAcase (Homo sapiens, UniProt O60502); test: Cellular O-GlcNAcase activity (protein O-GlcNAc Western blot) in fibroblasts and SH-SY5Y cells; type: cell-based; conditions: concentrations up to 100 μM
T2 construct: host or cells: wild-type fibroblasts AG07059 and SH-SY5Y cells
T2 sequence (O60502 1-916): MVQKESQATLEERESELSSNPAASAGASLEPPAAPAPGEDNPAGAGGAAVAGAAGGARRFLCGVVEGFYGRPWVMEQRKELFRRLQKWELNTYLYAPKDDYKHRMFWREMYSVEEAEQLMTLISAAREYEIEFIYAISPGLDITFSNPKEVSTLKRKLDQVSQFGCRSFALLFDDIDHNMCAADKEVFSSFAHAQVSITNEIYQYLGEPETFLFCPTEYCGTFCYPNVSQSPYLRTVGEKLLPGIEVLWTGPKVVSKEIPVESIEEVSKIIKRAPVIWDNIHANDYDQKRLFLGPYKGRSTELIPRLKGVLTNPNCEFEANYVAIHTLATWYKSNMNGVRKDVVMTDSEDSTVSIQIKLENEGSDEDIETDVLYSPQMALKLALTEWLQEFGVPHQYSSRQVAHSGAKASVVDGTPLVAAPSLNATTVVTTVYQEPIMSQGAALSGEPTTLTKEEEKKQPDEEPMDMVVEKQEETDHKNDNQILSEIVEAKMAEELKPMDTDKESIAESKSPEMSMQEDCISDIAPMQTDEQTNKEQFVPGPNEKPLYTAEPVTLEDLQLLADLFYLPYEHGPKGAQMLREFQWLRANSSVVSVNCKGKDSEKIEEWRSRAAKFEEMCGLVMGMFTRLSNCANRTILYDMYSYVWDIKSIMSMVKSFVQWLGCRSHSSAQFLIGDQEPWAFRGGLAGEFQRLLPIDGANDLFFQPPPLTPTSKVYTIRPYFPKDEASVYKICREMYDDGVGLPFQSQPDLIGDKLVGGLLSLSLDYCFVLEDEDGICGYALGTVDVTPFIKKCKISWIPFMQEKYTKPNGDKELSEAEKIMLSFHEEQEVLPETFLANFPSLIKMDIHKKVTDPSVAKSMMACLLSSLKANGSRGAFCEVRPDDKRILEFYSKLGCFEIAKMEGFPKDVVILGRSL
Protocol: Effect of AdDNJ on cellular O-GlcNAcase activity was tested in both wild-type fibroblast (AG07059, Coriell) and SH-SY5Y cells. Fibroblasts were incubated with or without 10 μM AdDNJ or Thiamet G in complete media for 24 h at 37° C. in a humidified 8% CO2 incubator. For SH-SY5Y cells, multiple concentrations (0 μM to 100 μM) of AdDNJ and Thiamet G were used. Cell pellets were lysed in RIPA buffer and total protein-associated O-GlcNAc level was measured using Western blot. Briefly, 40 μg total protein was separated, transferred to PVDF and probed with an anti O-GlcNAc antibody (18B10.C7, Pierce). Chemiluminescence was imaged using an Alpha Innotech FluoroChem Q imager and quantified by densitometry using AlphaView SA software (Alpha Innotech). The blots were stripped and re-probed with an anti-calnexin antibody (ab22595, Abcam). For O-GlcNAc quantification, whole lane O-GlcNAc densitometry was background subtracted and normalized to the calnexin load control band.

α-galactosidase (α-Gal) = target: T3, α-galactosidase (α-Gal) (Homo sapiens, UniProt P06280); test: Selectivity: alpha-galactosidase activity in fibroblast lysate; type: biochemical; conditions: 10 μM, the highest concentration tested
T3 construct: wild-type fibroblast (CRL2076) pellets (˜2.5e6 cells/pellet) were lysed; host or cells: wild-type fibroblasts CRL2076, lysate
T3 sequence (P06280 32-429): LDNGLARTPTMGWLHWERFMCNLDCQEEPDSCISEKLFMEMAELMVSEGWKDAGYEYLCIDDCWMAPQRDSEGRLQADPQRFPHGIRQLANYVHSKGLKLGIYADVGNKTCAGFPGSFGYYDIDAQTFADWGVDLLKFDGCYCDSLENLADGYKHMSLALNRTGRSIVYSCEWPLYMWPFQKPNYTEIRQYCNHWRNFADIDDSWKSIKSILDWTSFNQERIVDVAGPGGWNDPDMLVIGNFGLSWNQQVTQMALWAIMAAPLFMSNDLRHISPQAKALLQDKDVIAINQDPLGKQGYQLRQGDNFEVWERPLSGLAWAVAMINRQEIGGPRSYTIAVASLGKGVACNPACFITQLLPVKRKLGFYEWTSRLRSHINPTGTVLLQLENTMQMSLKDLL
Source text: as §1

[2] = system: GM1, GM2, and GM3 ganglioside levels; test: TLC analysis of whole brain ganglioside levels; type: in vivo, Dutch APP^E693Q transgenic mice; conditions: 3 months of 100 mg/kg
Protocol: The generation and characterization of Dutch APPE693Q mice transgenic mice is described in Gandy, S., et al. Days to criterion as an indicator of toxicity associated with human Alzheimer amyloid-beta oligomers. Annals of neurology 68, 220-230 (2010). 3-month-old male Dutch APP^E693Q mice transgenic mice were orally gavaged 5 days/week with either vehicle (water) (n=15) or 3, 10, 30 or 100 mg/kg AdDNJ for 3 months (n=13). All animal studies were approved and conducted in accordance with the Institutional Animal Care and Usage Committee. Mice were kept in a pathogen-free environment, on a 12-hour light/dark cycle and given ad libitum access to food and water. At 6 month of age treatment groups, and a 3-month-old untreated baseline group (n=15), were cognitively assessed in the NOR, EPM and FC tests. 48 hours following the final dose mice were perfused with ice-cold 1×PBS. The brain was removed and dissected into two hemispheres. One half was snap-frozen on dry ice and stored at −80° C. for biochemistry; the other half was post-fixed in 4% paraformaldehyde then sagittally sectioned on a vibratome into 30 μm sections and stored at 4° C. in storage buffer until histological analyses.

Q: `CC(=O)NC1CNC(CO)[C@@H](O)C1O` (some centres unmarked) [AdDNJ, 2-acetamido-1,2-dideoxynojirimycin] was tested. Which “inhibition of β-glucocerebrosidase (GCase)” value [1] did it give?
A: did not inhibit

Q: What about the “increase in β-hex levels” value (β-hex) of the same molecule?
A: up to 3 fold

Q: What about the “inhibition of O-GlcNAcase” value (O-GlcNAcase) of the same molecule?
A: did not inhibit

Q: What about the “inhibition of α-galactosidase (α-Gal)” value (α-galactosidase (α-Gal)) of the same molecule?
A: did not inhibit

Q: What about the “ganglioside levels in whole brain extracts (TLC)” value [2] of the same molecule?
A: did not reveal any changes in ganglioside levels
